Data from PubChem BioAssay AID248 (DTP/NCI, 2004).
Toxic doses and inconclusive results are not listed.

Tested on: L1210 leukemia ip in BDF1 mice, survival T/C
Assay: NCI In Vivo Anticancer Drug Screen. Data for tumor model L1210 Leukemia (intraperitoneal) in B6D2F1 (BDF1) mice
Settings: endpoint: mean survival time, higher = longer survival
Summary of the method: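 Mice bearing the transplanted tumor received compound or vehicle. Survival of the treated group was divided by that of the vehicle-treated control group to give the ratio.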

[1] = dose: 6.25 mg/kg/injection, schedule: Q01DX009 (ip), vehicle: saline
[2] = dose: 25.0 mg/kg/injection, schedule: Q01DX009 (ip), vehicle: saline
[3] = dose: 25.0 mg/kg/injection, schedule: Q04DX003 (ip), vehicle: saline
[4] = dose: 50.0 mg/kg/injection, schedule: Q01DX009 (ip), vehicle: saline
[5] = dose: 50.0 mg/kg/injection, schedule: Q04DX003 (ip), vehicle: saline
[6] = dose: 100.0 mg/kg/injection, schedule: Q01DX009 (ip), vehicle: saline
[7] = dose: 100.0 mg/kg/injection, schedule: Q04DX003 (ip), vehicle: saline
[8] = dose: 100.0 mg/kg/injection, schedule: Q01DX009 (ip), vehicle: Klucel (hydroxypropylcellulose) (HPC)
[9] = dose: 100.0 mg/kg/injection, schedule: Q04DX003 (ip), vehicle: Klucel (hydroxypropylcellulose) (HPC)
[10] = dose: 200.0 mg/kg/injection, schedule: Q01DX009 (ip), vehicle: Klucel (hydroxypropylcellulose) (HPC)
[11] = dose: 200.0 mg/kg/injection, schedule: Q04DX003 (ip), vehicle: Klucel (hydroxypropylcellulose) (HPC)
[12] = dose: 400.0 mg/kg/injection, schedule: Q01DX009 (ip), vehicle: Klucel (hydroxypropylcellulose) (HPC)
[13] = dose: 400.0 mg/kg/injection, schedule: Q04DX003 (ip), vehicle: Klucel (hydroxypropylcellulose) (HPC)
[14] = dose: 12.5 mg/kg/injection, schedule: Q04DX003 (ip), vehicle: saline
[15] = dose: 100.0 mg/kg/injection, schedule: Q01DX001 (ip), vehicle: Klucel (hydroxypropylcellulose) (HPC)
[16] = dose: 200.0 mg/kg/injection, schedule: Q01DX001 (ip), vehicle: Klucel (hydroxypropylcellulose) (HPC)
[17] = dose: 50.0 mg/kg/injection, schedule: Q01DX001 (ip), vehicle: saline
[18] = dose: 100.0 mg/kg/injection, schedule: Q01DX001 (ip), vehicle: saline
[19] = dose: 200.0 mg/kg/injection, schedule: Q01DX001 (ip), vehicle: saline
[20] = dose: 400.0 mg/kg/injection, schedule: Q01DX001 (ip), vehicle: saline

SMILES: CNCC(C)(C)c1ccccc1
- T/C [1]: 101 % of control
- T/C (dose: 12.5 mg/kg/injection, schedule: Q01DX009 (ip), vehicle: saline): 101 % of control
- T/C [2]: 102 % of control
- T/C [3]: 104 % of control
- T/C [4]: 107 % of control
- T/C [5]: 104 % of control
- T/C [6]: 104 % of control
- T/C [7]: 106 % of control

SMILES: O=C(NCCCN1CC1)C(=O)NCCCN1CC1
- T/C (dose: 1.5 mg/kg/injection, schedule: Q04DX003 (ip), vehicle: Klucel (hydroxypropylcellulose) (HPC)): 121 % of control
- T/C (dose: 2.3 mg/kg/injection, schedule: Q04DX003 (ip), vehicle: Klucel (hydroxypropylcellulose) (HPC)): 110 % of control
- T/C (dose: 3.12 mg/kg/injection, schedule: Q04DX003 (ip), vehicle: Klucel (hydroxypropylcellulose) (HPC)): 112 % of control
- T/C (dose: 5.3 mg/kg/injection, schedule: Q04DX003 (ip), vehicle: Klucel (hydroxypropylcellulose) (HPC)): 166 % of control
- T/C (dose: 8.0 mg/kg/injection, schedule: Q04DX003 (ip), vehicle: Klucel (hydroxypropylcellulose) (HPC)): 173 % of control
- T/C (dose: 12.0 mg/kg/injection, schedule: Q04DX003 (ip), vehicle: Klucel (hydroxypropylcellulose) (HPC)): 215 % of control
- T/C (dose: 12.5 mg/kg/injection, schedule: Q04DX003 (ip), vehicle: Klucel (hydroxypropylcellulose) (HPC)): 180 % of control
- T/C (dose: 18.0 mg/kg/injection, schedule: Q04DX003 (ip), vehicle: Klucel (hydroxypropylcellulose) (HPC)): 183 % of control

SMILES: COC(=O)CCCCCN1C(=O)c2cccc([N+](=O)[O-])c2C1=O
- T/C (dose: 100.0 mg/kg/injection, schedule: Q01DX001 (ip), vehicle: saline with Tween-80): 104 % of control
- T/C (dose: 200.0 mg/kg/injection, schedule: Q01DX001 (ip), vehicle: saline with Tween-80): 97 % of control
- T/C (dose: 400.0 mg/kg/injection, schedule: Q01DX001 (ip), vehicle: saline with Tween-80): 100 % of control

SMILES: O=C(CCCl)N1CCN(C(=O)CCCl)c2ccccc21
- T/C (dose: 100.0 mg/kg/injection, schedule: Q01DX001 (ip), vehicle: carboxymethylcellulose (CMC)): 103 % of control
- T/C (dose: 200.0 mg/kg/injection, schedule: Q01DX001 (ip), vehicle: carboxymethylcellulose (CMC)): 96 % of control
- T/C (dose: 400.0 mg/kg/injection, schedule: Q01DX001 (ip), vehicle: carboxymethylcellulose (CMC)): 96 % of control

SMILES: O=[N+]([O-])c1ccc2c(c1)Cc1cc(Br)ccc1-2
- T/C [8]: 106 % of control
- T/C [9]: 92 % of control
- T/C [10]: 95 % of control
- T/C [11]: 91 % of control
- T/C [12]: 98 % of control
- T/C [13]: 102 % of control

SMILES: O=[N+]([O-])c1cccc(Cl)c1F
- T/C (dose: 100.0 mg/kg/injection, schedule: Q04DX002 (ip), vehicle: Klucel (hydroxypropylcellulose) (HPC)): 101 % of control
- T/C (dose: 200.0 mg/kg/injection, schedule: Q04DX002 (ip), vehicle: Klucel (hydroxypropylcellulose) (HPC)): 96 % of control

SMILES: Cc1ccc(Oc2ccc3cc[n+](C)cc3c2)cc1
- T/C (dose: 6.25 mg/kg/injection, schedule: Q04DX002 (ip), vehicle: DMSO): 94 % of control
- T/C (dose: 12.5 mg/kg/injection, schedule: Q04DX002 (ip), vehicle: DMSO): 105 % of control
- T/C (dose: 25.0 mg/kg/injection, schedule: Q04DX002 (ip), vehicle: DMSO): 102 % of control

SMILES: N#CCCNc1cccc(Cl)c1
- T/C [9]: 94 % of control
- T/C [11]: 109 % of control
- T/C [13]: 96 % of control

SMILES: CC1(C(=O)O)COC(=O)N1 (stereo not drawn)
- T/C (dose: 25.0 mg/kg/injection, schedule: Q04DX002 (ip), vehicle: saline): 96 % of control
- T/C (dose: 50.0 mg/kg/injection, schedule: Q04DX002 (ip), vehicle: saline): 104 % of control
- T/C (dose: 100.0 mg/kg/injection, schedule: Q04DX002 (ip), vehicle: saline): 86 % of control

SMILES: CCCCCCCCCCCC[N+](CCO)(CCO)Cc1ccccc1
- T/C (dose: 3.12 mg/kg/injection, schedule: Q01DX009 (ip), vehicle: saline): 96 % of control
- T/C [1]: 98 % of control
- T/C [14]: 88 % of control

SMILES: S=C(Nc1nccs1)Nc1nccs1
- T/C [15]: 100 % of control
- T/C [16]: 97 % of control
- T/C (dose: 400.0 mg/kg/injection, schedule: Q01DX001 (ip), vehicle: Klucel (hydroxypropylcellulose) (HPC)): 89 % of control

SMILES: CCOC(=O)c1nc2nc(Cl)c(Cl)nc2[nH]1
- T/C [14]: 102 % of control
- T/C [2]: 107 % of control
- T/C [3]: 100 % of control
- T/C [4]: 105 % of control
- T/C [5]: 105 % of control
- T/C [6]: 96 % of control
- T/C [7]: 99 % of control
- T/C (dose: 200.0 mg/kg/injection, schedule: Q04DX003 (ip), vehicle: saline): 98 % of control
- T/C (dose: 400.0 mg/kg/injection, schedule: Q04DX003 (ip), vehicle: saline): 96 % of control

SMILES: O=NN(CCCl)C(=O)NC12CC3CC(CC(C3)C1)C2
- T/C (dose: 62.0 mg/kg/injection, schedule: Q01DX001 (ip), vehicle: carboxymethylcellulose (CMC)): 270 % of control
- T/C (dose: 93.0 mg/kg/injection, schedule: Q01DX001 (ip), vehicle: carboxymethylcellulose (CMC)): 250 % of control
- T/C (dose: 125.0 mg/kg/injection, schedule: Q01DX001 (ip), vehicle: carboxymethylcellulose (CMC)): 255 % of control
- T/C (dose: 187.0 mg/kg/injection, schedule: Q01DX001 (ip), vehicle: carboxymethylcellulose (CMC)): 182 % of control

SMILES: COc1ccc(Cl)cc1NC(=O)Nc1ccc(Cl)cc1[N+](=O)[O-]
- T/C [8]: 100 % of control
- T/C [10]: 94 % of control
- T/C [12]: 97 % of control

SMILES: O=S1(=O)CC(O)C1
- T/C [17]: 91 % of control
- T/C [18]: 100 % of control
- T/C [19]: 94 % of control
- T/C [20]: 105 % of control

SMILES: O=C1CCCCCCC12CCCCC2
- T/C [8]: 88 % of control
- T/C [9]: 102 % of control
- T/C [10]: 98 % of control
- T/C [11]: 95 % of control
- T/C [12]: 98 % of control
- T/C [13]: 91 % of control

SMILES: C=C(C)CCc1ccccc1
- T/C [17]: 102 % of control
- T/C [18]: 104 % of control
- T/C [19]: 96 % of control

SMILES: Nc1ccccc1C(=O)NO
- T/C [18]: 98 % of control
- T/C [19]: 97 % of control
- T/C [20]: 97 % of control

SMILES: Cc1cc(NC(=O)Nc2ccc(C3=NCCN3)cc2)ccc1NC(=O)Nc1ccc(C2=NCCN2)cc1
- T/C (dose: 62.0 mg/kg/injection, schedule: Q01DX Z (ip), vehicle: carboxymethylcellulose (CMC)): 124 % of control
- T/C (dose: 250.0 mg/kg/injection, schedule: Q01DX Z (ip), vehicle: carboxymethylcellulose (CMC)): 151 % of control

SMILES: Cc1cc(S(=O)(=O)F)ccc1NC(=O)CCc1ccc(N2C(N)=NC(N)=NC2(C)C)cc1
- T/C [15]: 98 % of control
- T/C [16]: 102 % of control

SMILES: CCCC1OC(=O)C(C)O1 (stereo not drawn)
- T/C [8]: 94 % of control
- T/C [9]: 105 % of control
- T/C [10]: 97 % of control
- T/C [11]: 100 % of control
- T/C [13]: 103 % of control

SMILES: COc1ccc(/C=C/C(=O)c2ccc(OC)cc2)cc1
- T/C [8]: 100 % of control
- T/C [9]: 102 % of control
- T/C [10]: 94 % of control
- T/C [11]: 98 % of control
- T/C [12]: 92 % of control
- T/C [13]: 101 % of control

SMILES: CCN(Cc1ccccc1)c1cc(=O)[nH]c(=O)[nH]1
- T/C (dose: 48.0 mg/kg/injection, schedule: Q01DX001 (ip), vehicle: Klucel (hydroxypropylcellulose) (HPC)): 100 % of control
- T/C (dose: 96.0 mg/kg/injection, schedule: Q01DX001 (ip), vehicle: Klucel (hydroxypropylcellulose) (HPC)): 102 % of control
- T/C (dose: 192.0 mg/kg/injection, schedule: Q01DX001 (ip), vehicle: Klucel (hydroxypropylcellulose) (HPC)): 97 % of control

SMILES: O=C(N1CCN=C1C(Cl)(Cl)Cl)C(Cl)(Cl)Cl
- T/C (dose: 100.0 mg/kg/injection, schedule: Q04DX003 (ip), vehicle: saline with Tween-80): 100 % of control
- T/C (dose: 200.0 mg/kg/injection, schedule: Q04DX003 (ip), vehicle: saline with Tween-80): 102 % of control
- T/C (dose: 400.0 mg/kg/injection, schedule: Q04DX003 (ip), vehicle: saline with Tween-80): 102 % of control
